Data from article PMC9488896, “Hydroxamic Acid-Modified Peptide Library Provides Insights into the Molecular Basis for the Substrate Selectivity of HDAC Corepressor Complexes” (ACS Chemical Biology, 2022).
Read-outs that look alike come from different tables or passages of the source. Blank lines part the entries; values can stand above or below the compound they belong to. Residues, ends and D or L forms follow the SMILES beside them. No end group written: not given here.

Tests used:
Format in all cases: biochemical
[1] = molecular target: T1, HDAC1/MTA1(aa: 162–546)/RBBP4 core NuRD complex (HMR) (Homo sapiens, UniProt Q09028+Q13330+Q13547); test: Boc-Lys HDAC inhibition assay; settings: 50 nM complex, 20 min preincubation rt, 100 μM Boc-(Ac)Lys-AMC, 37 °C 30 min, technical replicates N = 2
T1 construct: made in house; host or cells: HEK293F
T1 sequence (Q13547 whole entry, species assumed): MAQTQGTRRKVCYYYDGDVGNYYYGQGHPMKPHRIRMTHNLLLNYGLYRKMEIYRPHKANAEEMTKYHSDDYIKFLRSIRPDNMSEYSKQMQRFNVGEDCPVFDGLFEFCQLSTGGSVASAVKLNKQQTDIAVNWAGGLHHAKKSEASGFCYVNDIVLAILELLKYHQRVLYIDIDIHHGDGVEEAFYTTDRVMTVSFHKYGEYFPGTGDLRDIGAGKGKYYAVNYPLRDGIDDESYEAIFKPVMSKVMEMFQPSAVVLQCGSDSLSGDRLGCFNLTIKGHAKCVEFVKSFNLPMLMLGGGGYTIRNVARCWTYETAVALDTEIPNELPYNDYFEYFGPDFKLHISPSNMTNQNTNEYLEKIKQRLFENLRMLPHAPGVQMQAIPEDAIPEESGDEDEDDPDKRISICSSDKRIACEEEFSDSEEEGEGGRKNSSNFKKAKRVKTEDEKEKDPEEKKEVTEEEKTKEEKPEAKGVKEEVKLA
T1 sequence (Q13330 162-546 partner limits assumed, species assumed): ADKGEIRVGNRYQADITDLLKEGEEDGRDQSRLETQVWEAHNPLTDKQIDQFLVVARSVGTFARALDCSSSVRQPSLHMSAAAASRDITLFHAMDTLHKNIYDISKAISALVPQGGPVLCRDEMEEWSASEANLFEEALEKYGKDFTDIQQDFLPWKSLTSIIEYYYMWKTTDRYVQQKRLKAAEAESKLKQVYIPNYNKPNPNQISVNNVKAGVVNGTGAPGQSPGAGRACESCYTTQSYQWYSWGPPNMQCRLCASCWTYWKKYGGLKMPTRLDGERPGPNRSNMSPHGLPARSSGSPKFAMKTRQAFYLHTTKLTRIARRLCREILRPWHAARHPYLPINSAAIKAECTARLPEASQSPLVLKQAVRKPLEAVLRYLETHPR
T1 sequence (Q09028 whole entry partner, species assumed): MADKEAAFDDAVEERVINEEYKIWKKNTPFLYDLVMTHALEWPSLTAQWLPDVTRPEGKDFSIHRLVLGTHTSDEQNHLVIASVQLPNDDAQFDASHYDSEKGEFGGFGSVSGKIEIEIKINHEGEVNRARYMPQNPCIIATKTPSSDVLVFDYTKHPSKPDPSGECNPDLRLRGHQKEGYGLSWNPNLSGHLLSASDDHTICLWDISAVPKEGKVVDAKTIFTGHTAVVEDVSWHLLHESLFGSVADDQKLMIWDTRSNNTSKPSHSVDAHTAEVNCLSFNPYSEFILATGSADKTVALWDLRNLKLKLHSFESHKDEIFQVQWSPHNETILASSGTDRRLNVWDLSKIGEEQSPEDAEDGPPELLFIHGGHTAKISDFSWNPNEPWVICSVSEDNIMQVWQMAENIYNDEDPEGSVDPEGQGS
Procedure: (§1) Inhibition assays with various peptide inhibitors were performed using a fluorescence-based assay. The inhibitor peptides were initially dissolved in 5% dimethyl sulfoxide (DMSO) at a stock concentration of 25 mM before being further diluted in the HDAC assay buffer (50 mM Tris/HCl, pH 7.5, 150 mM NaCl). Serial dilutions (1:3) of the inhibitor were prepared, starting at a concentration of 500 μM. HDAC complexes were diluted to a final concentration of 50 nM and incubated with the inhibitor for 20 min at rt. The Boc-(Ac)Lys-AMC substrate was added at a final concentration of 100 μM The final volume of the reaction was 50 μL. The reaction was incubated at 37 °C, 150 rpm, for 30 min, before a developer (50 mM Tris, pH 7.5, 100 mM NaCl, 10 mg/mL trypsin) was added. The reaction was incubated with the developer for 10 min before being measured (PerkinElmer, 2030 multilabel reader, VICTOR X5, excitation 335 nm, emission 460 nm). The absorbance of the buffer as the blank control was subtracted from the HDAC activity, and IC50 calculations were performed using the nonlinear regression log(inhibitor) vs response equation Y = bottom + (top – bottom)/(1+10^(X–Log IC50)) in Graphpad Prism 9.

[2] = molecular target: T2, CoREST complex (Homo sapiens, UniProt Q13547+Q9UKL0); test: Boc-Lys HDAC inhibition assay; settings: HDAC complexes tables; 50 nM complex, 100 μM Boc-(Ac)Lys-AMC, 37 °C 30 min; technical replicates N = 2
T2 construct: made in house; host or cells: HEK293F
T2 sequence (Q13547 whole entry, other chains not shown): as the sequence (Q13547 whole entry, species assumed) above
T2 sequence (Q9UKL0 86-485 partner limits assumed, other chains not shown): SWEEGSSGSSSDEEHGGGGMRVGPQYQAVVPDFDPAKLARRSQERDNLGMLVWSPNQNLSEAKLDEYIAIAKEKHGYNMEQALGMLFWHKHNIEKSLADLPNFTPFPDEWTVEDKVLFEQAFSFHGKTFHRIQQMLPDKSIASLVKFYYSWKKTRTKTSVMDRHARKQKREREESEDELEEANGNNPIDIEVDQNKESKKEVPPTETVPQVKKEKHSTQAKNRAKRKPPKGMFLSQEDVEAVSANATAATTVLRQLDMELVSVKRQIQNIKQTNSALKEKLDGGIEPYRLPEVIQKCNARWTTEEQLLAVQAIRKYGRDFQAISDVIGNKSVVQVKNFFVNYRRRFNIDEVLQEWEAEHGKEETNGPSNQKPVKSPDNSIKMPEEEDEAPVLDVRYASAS
Excerpt: (§2) Finally, we directed our attention toward assessing how the results from the experiments with HMR would be common to the other known class I HDAC corepressor complexes. RERE, MIER1, CoREST, HMR, MiDAC, Sin3A, and SMRT were expressed and purified, and the concentrations were normalized based on the concentration of HDAC1 or HDAC3 (Figure 4A). We determined the potency of H3(23–29)K27Hd 12 and H4(12–18)K16Hd 16 against RERE, MIER1, CoREST, NuRD, MiDAC, Sin3A, and SMRT (Figure 4B). In addition, we repeated the H3(23–29)K27Hd alanine scan experiment for each of these complexes to assess whether or not the importance of Lys23 for maintaining potency against HMR was replicated across the other complexes (Figure 4C).
as §1

[3] = molecular target: T3, MIER1 complex (Homo sapiens, UniProt Q13547+Q8N108); test: Boc-Lys HDAC inhibition assay; settings: HDAC complexes tables; 50 nM complex, 100 μM Boc-(Ac)Lys-AMC, 37 °C 30 min; technical replicates N = 2
T3 construct: made in house; host or cells: HEK293F
T3 sequence (Q13547 whole entry): as the sequence (Q13547 whole entry, species assumed) above
T3 sequence (Q8N108 whole entry partner): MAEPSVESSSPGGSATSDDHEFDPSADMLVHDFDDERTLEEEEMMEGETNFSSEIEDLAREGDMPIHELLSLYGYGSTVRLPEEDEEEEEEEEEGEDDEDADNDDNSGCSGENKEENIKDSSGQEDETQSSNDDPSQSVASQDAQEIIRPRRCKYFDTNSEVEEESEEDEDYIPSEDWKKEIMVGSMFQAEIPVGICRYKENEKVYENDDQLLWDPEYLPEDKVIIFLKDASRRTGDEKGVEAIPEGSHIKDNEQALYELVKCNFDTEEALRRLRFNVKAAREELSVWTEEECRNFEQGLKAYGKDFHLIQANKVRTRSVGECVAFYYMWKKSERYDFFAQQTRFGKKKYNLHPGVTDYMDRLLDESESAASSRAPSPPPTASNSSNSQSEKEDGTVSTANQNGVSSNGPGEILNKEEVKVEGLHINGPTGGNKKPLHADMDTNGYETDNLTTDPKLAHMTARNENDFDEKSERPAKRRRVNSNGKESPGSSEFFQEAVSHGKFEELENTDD
Excerpt: as §2, §1

[4] = molecular target: T4, MiDAC complex (Homo sapiens, UniProt Q13547+Q6PJG2+Q9H147); test: Boc-Lys HDAC inhibition assay; settings: HDAC complexes tables; 50 nM complex, 100 μM Boc-(Ac)Lys-AMC, 37 °C 30 min; technical replicates N = 2
T4 construct: made in house; host or cells: HEK293F
T4 sequence (Q13547 whole entry): as the sequence (Q13547 whole entry, species assumed) above
T4 sequence (Q6PJG2 628-887 partner limits assumed): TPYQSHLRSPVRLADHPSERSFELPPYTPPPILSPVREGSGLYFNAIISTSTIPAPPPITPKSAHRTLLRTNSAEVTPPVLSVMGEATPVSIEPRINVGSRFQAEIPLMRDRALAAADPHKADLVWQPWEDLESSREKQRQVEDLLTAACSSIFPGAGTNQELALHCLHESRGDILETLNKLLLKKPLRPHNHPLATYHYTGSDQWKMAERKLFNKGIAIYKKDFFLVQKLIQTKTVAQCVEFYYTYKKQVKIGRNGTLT
T4 sequence (Q9H147 whole entry partner): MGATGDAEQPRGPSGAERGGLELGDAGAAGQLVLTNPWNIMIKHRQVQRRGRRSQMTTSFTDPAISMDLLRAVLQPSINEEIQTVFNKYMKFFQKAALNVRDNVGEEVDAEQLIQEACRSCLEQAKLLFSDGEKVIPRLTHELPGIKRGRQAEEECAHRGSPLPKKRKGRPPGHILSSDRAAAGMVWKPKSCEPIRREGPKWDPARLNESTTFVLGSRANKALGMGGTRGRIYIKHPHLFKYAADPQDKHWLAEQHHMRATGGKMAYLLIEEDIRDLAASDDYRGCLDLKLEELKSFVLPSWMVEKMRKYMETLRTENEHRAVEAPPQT
Excerpt: as §2, §1

[5] = molecular target: T5, RERE complex (Homo sapiens, UniProt Q13547+Q9P2R6); test: Boc-Lys HDAC inhibition assay; settings: HDAC complexes tables; 50 nM complex, 100 μM Boc-(Ac)Lys-AMC, 37 °C 30 min; technical replicates N = 2
T5 construct: made in house; host or cells: HEK293F
T5 sequence (Q13547 whole entry): as the sequence (Q13547 whole entry, species assumed) above
T5 sequence (Q9P2R6 whole entry partner): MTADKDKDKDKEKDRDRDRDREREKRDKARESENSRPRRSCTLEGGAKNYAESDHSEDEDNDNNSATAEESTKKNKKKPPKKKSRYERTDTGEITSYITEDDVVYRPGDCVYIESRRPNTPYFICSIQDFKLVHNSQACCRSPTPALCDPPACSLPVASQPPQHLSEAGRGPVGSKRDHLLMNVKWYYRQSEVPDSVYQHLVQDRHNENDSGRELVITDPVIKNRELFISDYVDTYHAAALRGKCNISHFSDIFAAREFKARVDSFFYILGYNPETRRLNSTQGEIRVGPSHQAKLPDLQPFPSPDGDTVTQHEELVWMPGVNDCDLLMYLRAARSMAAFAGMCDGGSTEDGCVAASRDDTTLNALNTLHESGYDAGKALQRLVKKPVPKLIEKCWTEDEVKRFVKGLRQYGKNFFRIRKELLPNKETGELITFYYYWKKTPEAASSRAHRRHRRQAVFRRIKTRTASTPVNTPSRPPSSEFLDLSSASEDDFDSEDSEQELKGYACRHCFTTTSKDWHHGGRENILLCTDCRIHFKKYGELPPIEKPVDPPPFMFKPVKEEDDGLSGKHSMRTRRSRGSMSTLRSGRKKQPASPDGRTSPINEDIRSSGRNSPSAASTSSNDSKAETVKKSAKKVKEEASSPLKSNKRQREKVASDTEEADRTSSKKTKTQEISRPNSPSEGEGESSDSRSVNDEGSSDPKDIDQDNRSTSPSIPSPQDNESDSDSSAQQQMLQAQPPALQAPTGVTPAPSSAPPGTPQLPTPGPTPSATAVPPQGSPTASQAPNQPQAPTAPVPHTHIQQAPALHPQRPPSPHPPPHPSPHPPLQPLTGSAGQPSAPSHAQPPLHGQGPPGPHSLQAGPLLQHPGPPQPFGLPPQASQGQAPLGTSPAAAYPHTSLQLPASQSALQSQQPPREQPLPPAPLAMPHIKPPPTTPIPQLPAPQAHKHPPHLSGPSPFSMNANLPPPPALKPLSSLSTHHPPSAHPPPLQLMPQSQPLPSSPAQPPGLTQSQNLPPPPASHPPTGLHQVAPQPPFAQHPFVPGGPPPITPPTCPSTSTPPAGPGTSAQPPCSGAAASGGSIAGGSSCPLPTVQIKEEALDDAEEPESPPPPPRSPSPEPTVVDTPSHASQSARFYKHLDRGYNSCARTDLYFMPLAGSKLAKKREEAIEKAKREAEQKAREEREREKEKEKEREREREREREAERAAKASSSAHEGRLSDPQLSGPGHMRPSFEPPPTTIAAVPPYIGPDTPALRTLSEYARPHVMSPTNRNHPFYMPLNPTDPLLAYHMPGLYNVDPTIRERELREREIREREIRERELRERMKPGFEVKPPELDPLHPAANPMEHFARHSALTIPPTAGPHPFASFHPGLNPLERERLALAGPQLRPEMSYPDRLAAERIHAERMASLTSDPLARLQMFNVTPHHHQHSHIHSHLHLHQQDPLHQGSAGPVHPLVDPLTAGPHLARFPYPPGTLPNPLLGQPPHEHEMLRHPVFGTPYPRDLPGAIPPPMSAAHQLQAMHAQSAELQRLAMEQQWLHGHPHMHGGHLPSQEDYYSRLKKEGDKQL
Excerpt: as §2, §1

[6] = molecular target: T6, SMRT complex (HDAC3) (Homo sapiens, UniProt O15379); test: Boc-Lys HDAC inhibition assay; settings: HDAC complexes tables; 50 nM complex, 100 μM Boc-(Ac)Lys-AMC, 37 °C 30 min; technical replicates N = 2
T6 construct: made in house; host or cells: HEK293F
T6 sequence (O15379 whole entry, species assumed, one chain of several): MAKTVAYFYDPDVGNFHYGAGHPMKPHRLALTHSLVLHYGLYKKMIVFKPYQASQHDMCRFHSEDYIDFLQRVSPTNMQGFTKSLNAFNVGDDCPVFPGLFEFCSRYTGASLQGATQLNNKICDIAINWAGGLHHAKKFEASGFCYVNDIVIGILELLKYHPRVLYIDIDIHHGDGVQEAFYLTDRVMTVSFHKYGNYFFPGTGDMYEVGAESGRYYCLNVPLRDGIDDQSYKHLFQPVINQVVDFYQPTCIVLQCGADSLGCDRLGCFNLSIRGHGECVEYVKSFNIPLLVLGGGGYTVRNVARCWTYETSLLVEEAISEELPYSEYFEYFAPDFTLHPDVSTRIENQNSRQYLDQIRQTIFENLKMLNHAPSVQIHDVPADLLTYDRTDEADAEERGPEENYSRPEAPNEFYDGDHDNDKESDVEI
Excerpt: as §2, §1

[7] = molecular target: T7, Sin3A complex (Homo sapiens, UniProt Q13547); test: Boc-Lys HDAC inhibition assay; settings: HDAC complexes tables; 50 nM complex, 100 μM Boc-(Ac)Lys-AMC, 37 °C 30 min; technical replicates N = 2
T7 construct: made in house; host or cells: HEK293F
Excerpt: as §2, §1

[8] = molecular target: T1, HDAC1/MTA1(aa: 162–546)/RBBP4 core NuRD complex (HMR); test: Caliper deacetylation assay (rate-of-turnover of substrate peptides); settings: 125 nM HMR, 2 μM peptide; for Initial Rate of HMR against histone peptides: Rate (% conversion min-1): 50 mM Tris/HCl pH 7.5, 50 mM NaCl, 5% glycerol, linear fit of first 8 min, Caliper EZ Reader II, technical replicates N = 2
Procedure: The acetyl-lysine-containing library (compounds 1–8) was assessed for the initial rate at which they were deacetylated by the HMR complex (Figure 2A).
Reactions (30 μL) contained 125 nM HMR and 2 μM fluorescein-labeled peptides (peptides 1–8) in 50 mM Tris/HCl, pH 7.5, 50 mM NaCl, and 5% glycerol. The deacetylase reaction was recorded over a 30 min period, every 90 s, using a Caliper EZ Reader II System (Caliper Life Sciences, http://www.caliperls.com). The initial rates were calculated using the formula Y = Y-intercept + slope × X during the first 8 min of the reaction using GraphPad Prism 9.

[9] = inhibitor library experiment, fluorescence, read-out: IC50 of HMR against histone peptide library
[10] = alanine scan / H4K12Hd experiments, read-out: IC50 of HMR against H3 K27Hd, H4 K16Hd and H4K12Hd peptides

Compound: CC(=O)N[C@@H](CCCCN)C(=O)N[C@@H](C)C(=O)N[C@@H](C)C(=O)N[C@@H](C)C(=O)N[C@@H](CCCCCC(=O)NO)C(=O)N[C@@H](CO)C(=O)N[C@@H](C)C(N)=O [compound 22, H3(23–29)R26A K27Hd] (HELM PEPTIDE1{[ac].K.A.A.A.[O=C([C@H](CCCCCC(=O)[*:3])N[*:1])[*:2]].S.A.[am]}|CHEM1{[ON[*:1]]}$PEPTIDE1,CHEM1,6:R3-1:R1$$$V2.0)
- IC50 [1, 10]: 0.172 µM
- IC50 [2]: 0.287 µM
- IC50 [3]: 0.334 µM
- IC50 [4]: 0.203 µM
- IC50 [5]: 0.464 µM
- IC50 [6]: 0.11 µM

Compound: CC(=O)N[C@@H](C)C(=O)N[C@@H](C)C(=O)N[C@@H](C)C(=O)N[C@@H](CCCNC(=N)N)C(=O)N[C@@H](CCCCCC(=O)NO)C(=O)N[C@@H](CO)C(=O)N[C@@H](C)C(N)=O [compound 21, H3(23–29)K23A K27Hd] (HELM PEPTIDE1{[ac].A.A.A.R.[O=C([C@H](CCCCCC(=O)[*:3])N[*:1])[*:2]].S.A.[am]}|CHEM1{[ON[*:1]]}$PEPTIDE1,CHEM1,6:R3-1:R1$$$V2.0)
- IC50 [1, 10]: 26.2 µM
- IC50 [2]: 18.3 µM
- IC50 [3]: 20.1 µM
- IC50 [4]: 18.1 µM
- IC50 [5]: 28.7 µM
- IC50 [6]: 17.4 µM
- IC50 [7]: 71.6 µM

Compound: CC(=O)N[C@@H](CCCCN)C(=O)NCC(=O)NCC(=O)N[C@@H](C)C(=O)N[C@@H](CCCCCC(=O)NO)C(=O)N[C@@H](C)C(=O)N[C@@H](Cc1c[nH]cn1)C(N)=O [compound 25, H4 (12-18) K16Hd R17A] (HELM PEPTIDE1{[ac].K.G.G.A.[O=C([C@H](CCCCCC(=O)[*:3])N[*:1])[*:2]].A.H.[am]}|CHEM1{[ON[*:1]]}$PEPTIDE1,CHEM1,6:R3-1:R1$$$V2.0)
- IC50 [1, 10]: 0.429 µM

Compound: CC(=O)N[C@@H](CO)C(=O)NCC(=O)N[C@@H](CCCNC(=N)N)C(=O)NCC(=O)N[C@@H](CCCCCC(=O)NO)C(=O)NCC(=O)NCC(=O)N[C@@H](CCCCN)C(N)=O [compound 13, H4 (1-8) K5Hd] (HELM PEPTIDE1{[ac].S.G.R.G.[O=C([C@H](CCCCCC(=O)[*:3])N[*:1])[*:2]].G.G.K.[am]}|CHEM1{[ON[*:1]]}$PEPTIDE1,CHEM1,6:R3-1:R1$$$V2.0)
- IC50 [1, 9]: 0.633 µM

Compound: CC(=O)N[C@@H](C)C(=O)NCC(=O)NCC(=O)N[C@@H](C)C(=O)N[C@@H](CCCCCC(=O)NO)C(=O)N[C@@H](CCCNC(=N)N)C(=O)N[C@@H](Cc1c[nH]cn1)C(N)=O [compound 24, H4 (12-18) K16Hd K12A] (HELM PEPTIDE1{[ac].A.G.G.A.[O=C([C@H](CCCCCC(=O)[*:3])N[*:1])[*:2]].R.H.[am]}|CHEM1{[ON[*:1]]}$PEPTIDE1,CHEM1,6:R3-1:R1$$$V2.0)
- IC50 [1, 10]: 3.25 µM

Compound: H3(23–29)K27Ac (KAARK(Ac)SA-NH2; UniProt P68431 24-30, looked up, fragment) [compound 4, acetyl-lysine-containing histone H3 tail substrate peptide, C-terminal amide]
- Initial Rate of HMR against histone peptides: Rate (% conversion min-1) [8]: 0.79 +/-0.075 % conversion min-1

Compound: CC(=O)N[C@H](C(=O)NCC(=O)NCC(=O)N[C@@H](CCCCCC(=O)NO)C(=O)N[C@@H](C)C(=O)N1CCC[C@H]1C(=O)N[C@@H](CCCNC(=N)N)C(N)=O)[C@@H](C)O [compound 11, H3 (11-17) K14Hd] (HELM PEPTIDE1{[ac].T.G.G.[O=C([C@H](CCCCCC(=O)[*:3])N[*:1])[*:2]].A.P.R.[am]}|CHEM1{[ON[*:1]]}$PEPTIDE1,CHEM1,5:R3-1:R1$$$V2.0)
- IC50 [1, 9]: 0.886 µM

Compound: CC(=O)N[C@@H](C)C(=O)N[C@@H](CCCNC(=N)N)C(=O)N[C@H](C(=O)N[C@@H](CCCCCC(=O)NO)C(=O)N[C@@H](CCC(N)=O)C(=O)N[C@H](C(=O)N[C@@H](C)C(N)=O)[C@@H](C)O)[C@@H](C)O [compound 9, H3 (1-7) K4Hd] (HELM PEPTIDE1{[ac].A.R.T.[O=C([C@H](CCCCCC(=O)[*:3])N[*:1])[*:2]].Q.T.A.[am]}|CHEM1{[ON[*:1]]}$PEPTIDE1,CHEM1,5:R3-1:R1$$$V2.0)
- IC50 [1, 9]: 0.333 µM

Compound: H4(4–10)K8Ac (GKGGK(Ac)GL-NH2; UniProt P62805 5-11, looked up, fragment) [compound 6, acetyl-lysine-containing histone H4 tail substrate peptide, C-terminal amide]
- Initial Rate of HMR against histone peptides: Rate (% conversion min-1) [8]: 0.16 +/-0.016 % conversion min-1

Continued, values first:

- IC50 [1, 9]: 0.431 µM
Compound: CC(=O)NCC(=O)N[C@@H](CCCCN)C(=O)NCC(=O)NCC(=O)N[C@@H](CCCCCC(=O)NO)C(=O)NCC(=O)N[C@@H](CC(C)C)C(N)=O [compound 14, H4 (4-10) K8Hd] (HELM PEPTIDE1{[ac].G.K.G.G.[O=C([C@H](CCCCCC(=O)[*:3])N[*:1])[*:2]].G.L.[am]}|CHEM1{[ON[*:1]]}$PEPTIDE1,CHEM1,6:R3-1:R1$$$V2.0)

- Initial Rate of HMR against histone peptides: Rate (% conversion min-1) [8]: 1.08 +/-0.024 % conversion min-1
Compound: H4(12–18)K16Ac (KGGAK(Ac)RH-NH2; UniProt P62805 13-19, looked up, fragment) [compound 8, acetyl-lysine-containing histone H4 tail substrate peptide, C-terminal amide]

- Initial Rate of HMR against histone peptides: Rate (% conversion min-1) [8]: 0.18 +/- 0.009 % conversion min-1
Compound: H3(1–7)K4Ac (ARTK(Ac)QTA-NH2; UniProt P68431 2-8, looked up, fragment) [compound 1, acetyl-lysine-containing histone H3 tail substrate peptide, C-terminal amide]

- Initial Rate of HMR against histone peptides: Rate (% conversion min-1) [8]: 0.40 +/- 0.013 % conversion min-1
Compound: H3(6–12)K9Ac (TARK(Ac)STG-NH2; UniProt P68431 7-13, looked up, fragment) [compound 2, acetyl-lysine-containing histone H3 tail substrate peptide, C-terminal amide]

- Initial Rate of HMR against histone peptides: Rate (% conversion min-1) [8]: 0.03 +/-0.020 % conversion min-1
- Km ([8]; 30 min time course, table of initial rates): Unstable
Compound: H4(9–15)K12Ac (GLGK(Ac)GGA-NH2; UniProt P62805 10-16, looked up, fragment) [compound 7, acetyl-lysine-containing histone H4 tail substrate peptide, C-terminal amide]

- Initial Rate of HMR against histone peptides: Rate (% conversion min-1) [8]: 0.10 +/- 0.027 % conversion min-1
Compound: H3(11–17)K14Ac (TGGK(Ac)APR-NH2; UniProt P68431 12-18, looked up, fragment) [compound 3, acetyl-lysine-containing histone H3 tail substrate peptide, C-terminal amide]

- Initial Rate of HMR against histone peptides: Rate (% conversion min-1) [8]: 0.32 +/-0.065 % conversion min-1
Compound: H4(1–8)K5Ac [compound 5]

- IC50 [1, 10]: 1.15 µM
Compound: CC(=O)N[C@@H](CCCCN)C(=O)NCC(=O)NCC(=O)N[C@@H](C)C(=O)N[C@@H](CCCCCC(=O)NO)C(=O)N[C@@H](CCCNC(=N)N)C(=O)N[C@@H](C)C(N)=O [compound 26, H4 (12-18) K16Hd H18A] (HELM PEPTIDE1{[ac].K.G.G.A.[O=C([C@H](CCCCCC(=O)[*:3])N[*:1])[*:2]].R.A.[am]}|CHEM1{[ON[*:1]]}$PEPTIDE1,CHEM1,6:R3-1:R1$$$V2.0)
